Experimental data taken from US10005767B2, “Compositions and methods for inhibition of the JAK pathway” (Rigel Pharmaceuticals, Inc., priority 2009, dated 2018).
pIC50: −log10 of the molar value. Where a name gives a salt, the structure may show the parent alone.

test system: human primary T-cells, IL-2 stimulated proliferation (JAK-1 and JAK-3 dependent; reported as JAK3 activity); experiment: Human primary T-cell proliferation stimulated by IL-2 (Example 3); assay type: cell-based; settings: Homo sapiens, T-cell, tested under conditions described in Example 3 (IL-2 stimulated human primary T-cell proliferation); read-out: ability to inhibit JAK3 activity, IC50 range (Table V)
Outline: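 Peripheral-blood human T-cells pre-activated via TCR/CD28, IL-2-starved overnight, then cultured 72 h at 37 °C with compound in Yssel's medium containing IL-2 (80 U/mL in cell suspension). Proliferation read as viable-cell ATP by CellTiter-Glo luminescence; reduction versus control taken as JAK pathway inhibition.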

SMILES | pIC50
COc1cc(Nc2ncc(C)c(Nc3ccc4oc(=O)[nH]c4c3)n2)cc(C)c1OC [Compound I-452, 5-(2-(3,4-dimethoxy-5-methylphenylamino)-5-methylpyrimidin-4-ylamino)benzo[d]oxazol-2(3H)-one] | > 6.30
COc1cc(Nc2ncc(C)c(Nc3cc(C)c4oc(=O)[nH]c4c3)n2)cc(C)c1OC [Compound I-453, 5-(2-(3,4-dimethoxy-5-methylphenylamino)-5-methylpyrimidin-4-ylamino)-7-methylbenzo[d]oxazol-2(3H)-one] | > 6.30
COc1cc(Nc2ncc(C)c(Nc3cc(F)c4oc(=O)[nH]c4c3)n2)cc(C)c1OC [Compound I-454, 5-(2-(3,4-dimethoxy-5-methylphenylamino)-5-methylpyrimidin-4-ylamino)-7-fluorobenzo[d]oxazol-2(3H)-one] | > 6.30
Cc1cnc(Nc2ccc(F)cc2F)nc1Nc1ccc2oc(=O)[nH]c2c1 [Compound I-456, 5-[2-(2,4-Difluoro-phenylamino)-5-methyl-pyrimidin-4-ylamino]-3H-benzooxazol-2-one] | > 6.30
CNC(C)c1cc(Nc2ncc(C)c(Nc3ccc4oc(=O)[nH]c4c3)n2)cc(C(F)(F)F)c1 (stereo not shown) [Compound I-457, 5-(5-methyl-2-(3-(1-(methylamino)ethyl)-5-(trifluoromethyl)phenylamino)pyrimidin-4-ylamino)benzo[d]oxazol-2(3H)-one] | > 6.30
COc1cc(Nc2ncc(C)c(Nc3ccc4oc(=O)[nH]c4c3)n2)cc(Cl)c1OC [Compound I-458, 5-(2-(3-chloro-4,5-dimethoxyphenylamino)-5-methylpyrimidin-4-ylamino)benzo[d]oxazol-2(3H)-one] | > 6.30
Cc1cnc(Nc2cc(C)c(OCCN3CCOCC3)c(C)c2)nc1Nc1ccc2oc(=O)[nH]c2c1 [Compound I-459, 5-(2-(3,5-dimethyl-4-(2-morpholinoethoxy)phenylamino)-5-methylpyrimidin-4-ylamino)benzo[d]oxazol-2(3H)-one] | > 6.30
CCCC(NC)c1cc(Nc2ncc(C)c(Nc3ccc4oc(=O)[nH]c4c3)n2)cc(C(F)(F)F)c1 (stereo not shown) [Compound I-460, 5-(5-methyl-2-(3-(1-(methylamino)butyl)-5-(trifluoromethyl)phenylamino)pyrimidin-4-ylamino)benzo[d]oxazol-2(3H)-one] | > 6.30
Cc1cnc(Nc2cc(C(C)NC3CC3)cc(C(F)(F)F)c2)nc1Nc1ccc2oc(=O)[nH]c2c1 (stereo not shown) [Compound I-461, 5-(2-(3-(1-(cyclopropylamino)ethyl)-5-(trifluoromethyl)phenylamino)-5-methylpyrimidin-4-ylamino)benzo[d]oxazol-2(3H)-one] | > 6.30
CCNC(C)c1cc(Nc2ncc(C)c(Nc3ccc4oc(=O)[nH]c4c3)n2)cc(C(F)(F)F)c1 (stereo not shown) [Compound I-462, 5-(2-(3-(1-(ethylamino)ethyl)-5-(trifluoromethyl)phenylamino)-5-methylpyrimidin-4-ylamino)benzo[d]oxazol-2(3H)-one] | > 6.30
Cc1cnc(Nc2cc(C(C)N3CCCC3)cc(C(F)(F)F)c2)nc1Nc1ccc2oc(=O)[nH]c2c1 (stereo not shown) [Compound I-463, 5-(5-methyl-2-(3-(1-(pyrrolidin-1-yl)ethyl)-5-(trifluoromethyl)phenylamino)pyrimidin-4-ylamino)benzo[d]oxazol-2(3H)-one] | > 6.30

same assay, conditions: tested under conditions described in Example 3 (IL-2 stimulated human primary T-cell proliferation); read-out: ability to inhibit JAK3 activity, IC50 range (Table V)

SMILES | pIC50
Cc1cnc(Nc2cc(C)c(F)c(C)c2)nc1Nc1ccc2oc(=O)n(COP(=O)(OC(C)(C)C)OC(C)(C)C)c2c1 [Compound I-450, N4-{3-[bis(1,1-dimethylethoxy)]phosphinyloxymethyl-2-oxo-2,3-dihydro-1,3-benzoxazol-5-yl}-N2-(3,5-dimethyl-4-fluoro)phenyl-5-methyl-2,4-pyrimidinediamine] | < 5.00
Cc1cnc(Nc2cc(C)c(F)c(C)c2)nc1Nc1ccc2oc(=O)n(COP(=O)(O)O)c2c1 [Compound I-451, N2-(3,5-dimethyl-4-fluoro)phenyl-5-methyl-N4-[3-(phosphonooxy)methyl-2-oxo-2,3-dihydro-1,3-benzoxazol-5-yl]-2,4-pyrimidinediamine bis-sodium salt] | 5.30 to 6.30
